Test results from patent US20130102009A1, “SIRTUIN ACTIVATORS AND ACTIVATION ASSAYS” (priority 2010, published 2013).
Counter-ions that a name gives are not always drawn.

How the values were obtained:
SIRT1(183-664) = molecular target: T1, SIRT1(183-664) (Homo sapiens, UniProt Q96EB6); test: Fluorescence binding experiment with SIRT1(183-664); conditions: excitation 315 nm, emission 450 nm; read-out: Kx (μM), Fluorescence
T1 construct: the truncated version used for biophysical studies SIRT1(183-664); made in house
T1 sequence (Q96EB6 183-664): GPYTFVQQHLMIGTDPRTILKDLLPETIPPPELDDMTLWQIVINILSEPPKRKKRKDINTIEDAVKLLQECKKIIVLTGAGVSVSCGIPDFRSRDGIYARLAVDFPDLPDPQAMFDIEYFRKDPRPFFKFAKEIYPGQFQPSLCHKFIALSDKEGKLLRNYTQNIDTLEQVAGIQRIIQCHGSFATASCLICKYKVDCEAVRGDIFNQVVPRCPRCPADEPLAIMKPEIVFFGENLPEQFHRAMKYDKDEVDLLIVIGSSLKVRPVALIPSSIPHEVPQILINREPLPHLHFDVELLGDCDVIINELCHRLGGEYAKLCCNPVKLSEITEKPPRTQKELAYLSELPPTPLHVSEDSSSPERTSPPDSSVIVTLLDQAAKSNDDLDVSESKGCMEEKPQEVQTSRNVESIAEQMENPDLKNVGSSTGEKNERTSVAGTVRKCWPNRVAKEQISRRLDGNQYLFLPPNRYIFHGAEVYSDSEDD
Procedure: All peptides were prepared by BioPeptide (San Diego, Calif.) and shown to be at least 95% pure by analytical HPLC analysis. Bovine glutamate dehydrogenase (GDH), α-ketoglutarate, NADH and NAD^+ were from Sigma Chemical Company. Full-length, human SIRT1 and the truncated version used for biophysical studies SIRT1(183-664) were prepared as described previously, and shown to have equivalent kinetic properties (Milne et al. (2007) Nature 450, 712-716). The nicotinamidase PNC1 was prepared as described by Denu and colleagues (Smith et al. (2009) Anal Biochem 394, 101-109).
SIRT1(183-664) was dialyzed against a buffer composed of 137 mM NaCl, 2.7 mM KCl, 1 mM MgCl2, 2 mM TCEP, 5% (v/v) glycerol and 50 mM HEPES-NaOH, pH 7.3. 14 was dissolved in the final dialysis buffer and its pH values were adjusted to match that of the protein solution. The fluorescence emission spectra of 14 in the absence or presence of different concentrations of enzyme was monitored on the SpectraMax M5 with excitation at 315 nm. The fluorescence intensity change at 450 nm was plotted against the concentration of SIRT1(183-664) and fitted using a standard binding equation.

[1] = molecular target: Ac-Arg-His-Lys-Lys^Ac-AMC; test: ITC binding of STACs to Ac-Arg-His-Lys-Lys^Ac-X, X=AMC; conditions: 10% DMSO for SRT1720, SRT2183 and 10, no cosolvent for SRT1460
Procedure: (§1) ITC experiments were performed using either a VP-ITC system or iTC200 system (MicroCal) at 26° C. in a buffer composed of 137 mM NaCl, 2.7 mM KCl, 1 mM MgCl2, 2 mM TCEP, 5% (v/v) glycerol and 50 mM HEPES-NaOH, pH 7.3. SIRT1(183-664) was purified and dialyzed against the buffer, centrifuged, and degassed before the experiment. The peptide and compounds were dissolved in the final dialysis buffer and their pH values were adjusted to match that of the protein solution. […] To characterize this interaction using the iTC200 system, 1 mM TAMRA-peptide was injected in 20 aliquots of 2 μL, (except the first injection, which was 0.5 μL) into a 0.202 mL sample cell containing 100 μM STAC. For STACs with poor solubility, the concentrations were adjusted accordingly. […] In all cases, data was corrected for the heat of dilution and fitted using a nonlinear least-squares routine using a single-site binding model with Origin for ITC v7.0383 (Microcal) with the stoichiometry (n), the enthalpy of the reaction (ΔH) and the association constant (Ka) calculated. Table 2 summarizes Kd values for the binding of STACs to […]. Note that except for SRT1460, the solubility of the compounds required that these ITC experiments be done in solutions containing 10% DMSO.

[2] = molecular target: Ac-Arg-His-Lys-Lys^Ac-Trp-NH2; test: ITC binding of STACs to Ac-Arg-His-Lys-Lys^Ac-X, X=TrpNH2; conditions: 10% DMSO for SRT1720, SRT2183 and 10, no cosolvent for SRT1460
Procedure: as §1

| Kd (SIRT1(183-664)) | Structure (SMILES) | Kd [1] | Kd [2] | Kd for binding to Ac-Arg-His-Lys-Lys^Ac-X, X=TrpNH2 [2] |
| --- | --- | --- | --- | --- |
| 0.27 µM | CN(C)Cc1cnc2sc(-c3ccccc3NC(=O)c3cnc4ccccc4n3)nc2c1 [Compound 2, N-(2-(6-((dimethylamino)methyl)thiazolo[5,4-b]pyridin-2-yl)phenyl)quinoxaline-2-carboxamide] | – | – | – |
| – | CCCCc1nc(NC2CCNCC2)cc(C(=O)Nc2ccccc2-c2nc3cc(COC4CCNCC4)cnc3s2)n1 [Compound 10, 2-butyl-6-(piperidin-4-ylamino)-N-(2-(6-((piperidin-4-yloxy)methyl)thiazolo[5,4-b]pyridin-2-yl)phenyl)pyrimidine-4-carboxamide] | > 500 µM | 25 µM | binds |
| 0.27 µM | CN(C)CCCNc1cc(-c2nc3c(NC(=O)c4ccc(CN5CCNCC5)cc4)cccc3[nH]2)ccn1 [Compound 14, N-(2-(2-(3-(dimethylamino)propylamino)pyridin-4-yl)-1H-benzo[d]imidazol-4-yl)-4-(piperazin-1-ylmethyl)benzamide trihydrochloride] | – | – | – |
| – | COc1cc(C(=O)Nc2ccccc2-c2cn3c(CN4CCNCC4)csc3n2)cc(OC)c1OC [SRT1460] | > 500 µM | > 500 µM | – |
